Results taken from patent US5922335A, “Uses for ascorbyl-phosphoryl-cholesterol in topical compositions” (Avon Products, Inc., priority 1998, dated 1999).

Legend:
Human elastin promoter = experiment: Inhibition of elastin gene promoter activity in UVB-irradiated cultured dermal fibroblasts transfected with promoter-reporter molecules; format: cell-based; conditions: for % Inhibition of elastin promoter activity at 6 hours / % Inhibition of elastin promoter activity at 12 hours: 100 μ Solution
Protocol: An art recognized method for evaluating the molecular events associated with increased elastin production was performed by measuring the activity of the elastin gene promoter, which is responsible for the activation of elastin gene transcription. (Bernstein, E. et al. 1995 Jour. Invest. Dermatol. 105:269-273).
Human elastin promoter molecules were linked to reporter molecules. The promoter-reporter linked molecules were then transfected into cultured dermal fibroblasts. Previous studies indicate that exposure of cultured fibroblasts to UVB radiation results in upregulation of elastin promoter activity. However, it is believed that UVA radiation may have an indirect effect on solar-induced elastosis.
Solutions of 1 μM to 100 μM of each 3'-(L-ascorbyl-2-o-phosphoryl)-cholesterol and ascorbic acid were produced. These solutions were then supplied to cultured fibroblasts. The control consisted of cultured fibroblasts in media containing neither 3'-(L-ascorbyl-2-o-phosphoryl)-cholesterol nor ascorbic acid.
The cultured fibroblasts were irradiated with single, dose of UVB radiation (5.5 mJ/cm^2) using an FS-40 light source. The spectrum of effectiveness of the FS-40 light source is estimated at 80 to 90% attributable to UVB. It is believed that 10 to 20% of the effectiveness of the FS-40 light source is attributable to […]. The activity attributable to UVA is believed to be negligible.

[1] = tested on: cultured human keratinocytes; experiment: Triglyceride biosynthesis in cultured normal human keratinocytes (3H-acetate incorporation); format: cell-based; conditions: 10 mM; 18.5 hours, then 3 hours with 3H-acetate; FIG. 1
Protocol: Normal human keratinocytes (hereinafter "NHK") were cultured and then divided into three groups. Each of the three groups were grown in various media for 18.5 hours, the various media being as follows:
1 mM "cold" sodium acetate
10 mM Cholesterylmonophosphate (CMP)
10 mM 3'-(L-ascorbyl-2-o-phosphoryl)-cholesterol
At the conclusion of 18.5 hours, 3H-acetate sodium salt (product number NEN#003H, 6.08 ci/mMole) was added to each group at 3 uCi/ml. The three groups were incubated at 37° C. for an additional 3 hours.
At the conclusion of the incubation period, each group was washed three times with iced PBS. The cells were then collected, sonicated and aliquated for lipid extraction using Bligh/Dyer method and for protein quantification.
The lipid extracts were subfracationated by Thin Layer Chromatography. Proteins were quantitated by Bradford assay.
Triglyceride biosythesis in cultured human keratinocytes is measured as a function of incorporation of 3-H acetate. The incorporation of 3-H acetate is expressed as counts per minute per milligram of 3-H acetate (cpm/mg 3H acetate). The results are illustrated in FIG. 1.

[2] = Hydroxyl radical scavenging activity by Electron Spin Resonance (DMPO, H2O2/FeSO4); format: biochemical; conditions: for Relative Peak Height (RPH): control 100.0; for Peak Height: pH 7.4
Protocol: Hydroxy radical scavenging activity was measured according to an art accepted method. (See Liu et al. Antioxidant Action of Guilingji in the Brain of Rats with FeCl3-induced Epilepsy, Free Radical Biol. & Med., (9:451-545, 1990.) Sample solutions of 3'-(L-ascorbyl-2-o-phosphoryl)-cholesterol of varying concentrations were prepared by dissolving 3'-(L-ascorbyl-2-o-phosphoryl)-cholesterol in 0.1M potassium phosphate buffer (pH=7.4). The following solutions were also prepared: 0.18M 5,5-dimethyl-1-pyrooline-N-oxide (hereinafter "DMPO") in 0.1M potassium phosphate buffer; 2 mM hydrogen peroxide (hereinafter "H2 O2 ") in 0.1M potassium phosphate buffer; and 0. 2 mM iron(II) sulfate (hereinafter "FeSO4 ") in distilled water. Fifty (50) […] of each of the aforedescribed solutions and […] of a sample solution were mixed for thirty (30) seconds and then placed in a flat cell. The Electron Spin Resonance was then measured using Free Radical Monitor JES-FR30, manufactured by JEOL, Tokyo, Japan, (hereinafter "FRM"). The FRM normalized all spectra for calculation by using an internal standard of manganese dioxide (hereinafter "MnO2 "). All peak heights were compared to the constant MnO2 signal generated. Each sample peak height was then divided by the MnO2 peak height to provide a relative peak height (hereinafter "RPH").

[3] = Superoxide anion scavenging by Electron Spin Resonance (hypoxanthine-xanthine oxidase system); format: biochemical; conditions: about 2.5 mg/ml; pH 7.4
Protocol: Superoxide anion scavenging ability was estimated according to the method described in the Liu et al. article noted above. Superoxide anion was generated by a hypoxanthine (hereinafter "HPX")-xanthine oxidase (hereinafter "XOD") system. The following solutions were prepared: 50 μl of 4 mM HPX in 0.1M potassium phosphate buffer; 30 μl of dimethyl sulfoxide, 50 μL of sample; 20 μL OF […] DMPO in 0.1M potassium phosphate buffer; and, 50 μl of XOD (0.4 units/ml) in 0.1M potassium phosphate buffer. The pH of the 0.1M potassium phosphate buffer was 7.4. The solutions of HPX, DMSO, DMPO, XOD and sample were mixed and transferred into a 200 μl-capacity flat cell. Electron Spin Resonance spectra was analyzed.

human skin fibroblasts = experiment: Collagen biosynthesis by cultured human skin fibroblasts ([3H]-Proline Incorporation Assay); format: cell-based; conditions: 48 hours; for collagen biosynthesis, Dpm × 10^-3 / mg protein: control 1.55; for collagen biosynthesis, Dpm × 10^-5 / mg DNA: control 14.43
Protocol: An art-recognized [^3 H]-Proline Incorporation Assay was performed with differne does of 3'-(L-ascorbyl-2-o-phosphoryl)-cholesterol. Juva, Anal. Biocheml, Vol, 15, PAGES 77-83 (1966); Booth, Biochem. Biophys. Acta, Vol. 675, pages 117-122 (1981).
After the first 24 hours [^3 H]-labeled proline was added to the culture. Following the second 24 hour period, the cells are harvested and prepared for the collagen biosynthesis assay.
Protease inhibitors are added to prevent degradation of collagen and other proteins. The cell layer is scraped into a solution containing 0.4 M NaCl and 0.01 M Tris (pH 7.5). Extracts are sonicated to disrup cell membranes. Saparate volumes of the cell-containing solution (1 ml each) are dialyzed overnight against several changes of deionized water. The retentate is removed from dialysis and hydrolyzed in 6 N hydrochloric acid at 120 degrees C. overnight. The assay is performed using an oxidation process with 2 M chloramine-T. Samples are analyzed for radioactive counts, with represent the amount of newly synthesized [^3 H]-labeled proline - - - an index for new collagen synthesis.

CC(C)CCC[C@@H](C)[C@H]1CC[C@H]2[C@@H]3CC=C4C[C@@H](OP(=O)(O)OC5=C(O)[C@@H]([C@@H](O)CO)OC5=O)CC[C@]4(C)[C@H]3CC[C@]12C [3'-(L-ascorbyl-2-o-phosphoryl)-cholesterol]
effect on elastin promoter activity in cultured fibroblasts (in words) (Human elastin promoter; 1 μM to 100 μM, UVB 5.5 mJ/cm^2): decreased elastin promoter activity in cultured fibroblasts in a dose dependent manner
degree of elastin promoter inhibition compared with ascorbic acid (in words) (Human elastin promoter; 1 μM to 100 μM, compared to ascorbic acid): exhibits a far superior degree of elastin promoter inhibition
% Inhibition of elastin promoter activity at 6 hours (Human elastin promoter; UVB 5.5 mJ/cm^2): 43%
% Inhibition of elastin promoter activity at 12 hours (Human elastin promoter; UVB 5.5 mJ/cm^2): 34%
duration of elastin promoter inhibition compared with ascorbic acid (in words) (Human elastin promoter; compared to ascorbic acid): inhibits elastin promoter activity for a significantly longer period of time than ascorbic acid
triglyceride synthesis in cultured human keratinocytes (in words) [1]: significantly increases triglyceride synthesis in cultured human keratinocytes
hydroxyl radical scavenging (in words) [2]: effective scavenger of hydroxyl radicals
Relative Peak Height (RPH) ([2]; 0.0391 mg/ml): 100.0
Peak Height ([2]; 0.0391 mg/ml): 1.60
Relative Peak Height (RPH) ([2]; 0.0782 mg/ml): 85.0
Peak Height ([2]; 0.0782 mg/ml): 1.36
Relative Peak Height (RPH) ([2]; 0.1563 mg/ml): 78.1
Peak Height ([2]; 0.1563 mg/ml): 1.25
Relative Peak Height (RPH) ([2]; 0.3125 mg/ml): 57.5
Peak Height ([2]; 0.3125 mg/ml): 0.92
Relative Peak Height (RPH) ([2]; 0.6250 mg/ml): 30.6
Peak Height ([2]; 0.6250 mg/ml): 0.49
Relative Peak Height (RPH) ([2]; 1.2500 mg/ml): 9.4
Peak Height ([2]; 1.2500 mg/ml): 0.15
Relative Peak Height (RPH) ([2]; 2.5000 mg/ml): 5.6
Peak Height ([2]; 2.5000 mg/ml): 0.09
inhibition of the formation of the superoxide [3]: 50%
dose dependence of stimulation in human skin fibroblasts (in words) (human skin fibroblasts; 11.3 to 45 μg/ml): increased production of new human skin fibroblasts in a dose dependent manner
Stimulation - fold Increase of collagen biosynthesis (human skin fibroblasts; 11.3 μl/ml): 2.9 fold
collagen biosynthesis, Dpm × 10^-3 / mg protein (human skin fibroblasts; 11.3 μl/ml): 5.17 Dpm × 10^-3 / mg protein
collagen biosynthesis, Dpm × 10^-5 / mg DNA (human skin fibroblasts; 11.3 μl/ml): 42.07 Dpm × 10^-5 / mg DNA
Stimulation - fold Increase of collagen biosynthesis (human skin fibroblasts; 22.5 μl/ml): 3.3 fold
collagen biosynthesis, Dpm × 10^-3 / mg protein (human skin fibroblasts; 22.5 μl/ml): 5.02 Dpm × 10^-3 / mg protein
collagen biosynthesis, Dpm × 10^-5 / mg DNA (human skin fibroblasts; 22.5 μl/ml): 48.31 Dpm × 10^-5 / mg DNA
Stimulation - fold Increase of collagen biosynthesis (human skin fibroblasts; 45.0 μl/ml): 6.4 fold
collagen biosynthesis, Dpm × 10^-3 / mg protein (human skin fibroblasts; 45.0 μl/ml): 11.07 Dpm × 10^-3 / mg protein
collagen biosynthesis, Dpm × 10^-5 / mg DNA (human skin fibroblasts; 45.0 μl/ml): 92.25 Dpm × 10^-5 / mg DNA

O=C1O[C@H]([C@@H](O)CO)C(O)=C1O [Ascorbic Acid, ascorbic acid, reference compound]
% Inhibition of elastin promoter activity at 6 hours (Human elastin promoter; UVB 5.5 mJ/cm^2): 23%
% Inhibition of elastin promoter activity at 12 hours (Human elastin promoter; UVB 5.5 mJ/cm^2): 0%
